Here are results for 64 molecules from a melting point compilation (Tetko et al.; mined from patent text by program, amines drawn as free bases though some values may be those of a salt).

A value given as a limit tells only on which side of the number the result lay.

A word on the melting point: it is the temperature of the solid-liquid transition. For the molecule `CCOc1cnc(C(C)C)nc1O`, the melting point came out at 154 °C.
In turn, `COC(=O)CCc1ccc(NC(=O)N(NC(=O)c2ccccc2)c2ccc(C#N)cc2)cc1` registered a melting point of 76 to 81 °C.
On to `C=CC(O)(c1ccc(Cl)cc1)c1cccnc1` (centres undefined), for which the melting point fell in the range of 82.5 to 84 °C.
Under `O=C(O)CCc1ccc(CCNS(=O)(=O)c2ccccc2)cc1` stands 102 to 103 °C; under `CC(=O)Cc1cc([C@]2(c3cccc(-c4cccnc4F)c3)N=C(N)N(C)C2=O)cn1CCCF`, 147 to 150 °C; under `COC(=O)C1CCC(c2csc(NC(=N)N)n2)C1` (centres undefined), 124 to 126 °C.
Turning to `O=C(c1ccc(Cl)cc1)N1CC2CC2(c2ccc(Cl)cc2)C1` (centres undefined), the melting point was in the range of 88 to 92 °C.
Regarding `c1ccc2c(CN3CCN(c4ccc5c(c4)OCO5)CC3)n[nH]c2c1`, the melting point is 149 to 150 °C.
Under `Oc1ccc(-c2ncn(CC(O)(Cn3cncn3)c3ccc(F)cc3F)n2)cc1` (centres undefined) stands 120 to 127 °C.
For the molecule `C=C(C)OC(=O)N1c2nc(C)ccc2NC(=S)C1C` (racemic), the melting point is 120 to 121 °C.
Take `Cc1c(OCCCOc2cc(C(C)(C)C)c(O)c(C(C)(C)C)c2C)cc(C(C)(C)C)c(O)c1C(C)(C)C`: the melting point came out at 120 °C.
The figure for `CC(/C=C/C(=O)OC(C)(C)C)=C\c1ccc([N+](=O)[O-])cc1` is 120 to 122 °C; for `CCCC(=O)N(Cc1ccc(OC(F)(F)F)cc1)c1cc(Cl)cc(-c2nnn[nH]2)c1` it is 179 °C.
In the case of `CCCCn1c(CO)nc2c(N)nc3ccccc3c21`, the melting point is 223 to 225 °C.
In turn, `C=C(c1ccc2nc(N)n(S(=O)(=O)C(C)C)c2c1)c1cc(F)ccc1F` yielded a melting point of 161 to 164 °C.
As for `O=C(F)N(SN1CCOCC1)c1ccccc1`, the melting point was 71 to 72 °C.
With `CC(C)Oc1nccc(-c2c(-c3ccc(F)cc3)ncn2C2CCC(=O)CC2)n1`, the melting point was 161 to 163 °C.
Under `COC(=O)Cc1cc([N+](=O)[O-])c(OC)c2c1N(C(C)=O)CC2` stands 181 to 182 °C; under `CCOC(=O)c1sc(Oc2ccccc2)c2c1CCCC2=O`, 125 to 127 °C; under `CCOc1ccc(C(=O)N2CCNC2=Nc2c(Cl)cccc2Cl)cc1`, 146 to 148 °C.
Molecule `CCOC(=O)c1cn2c3c(c(-c4ccc(S(N)(=O)=O)cc4)c(F)cc3c1=O)OCC2C` (centres undefined) gave a melting point of over 250 °C.
The figure for `O=C(NCCO[N+](=O)[O-])c1cscn1` is 105 to 108 °C.
`COC(=O)c1ccc(Cl)cc1NS(C)(=O)=O` came in with a melting point of 126 to 128 °C.
Under `NS(=O)(=O)c1cc(Br)cc2c1OS(=O)(=O)C=C2` stands 224 to 228 °C; under `O=C(O)CCCc1ccc2sc3ccccc3c2c1`, 127 to 128 °C.
Consider `COC(=O)C(c1ccc(Cl)cc1)(c1ccc(Cl)cc1)c1ncc[nH]1`, for which the melting point came out at 132 °C.
Turning to `O=C(Cl)c1c(Oc2ccccc2)cccc1Oc1ccccc1`, the melting point is 72 to 73 °C.
`N#Cc1cnc(N[C@@H]2CCCc3ccccc32)nc1N` had a melting point of 168 °C.
In the case of `COc1cc(Nc2nccc(-c3ccc(N4CCNC(CCO)C4)nc3)n2)cc(OC)c1OC` (centres undefined), the melting point lay within 150 to 151 °C.
The molecule `CCCCc1ccc(NC(N)=S)cc1` yielded a melting point of 123 to 125 °C.
Under `Cc1ccc(-c2[nH]c(C)nc2C(=O)Nc2nccs2)cc1` stands 275 to 276 °C.
In turn, `CC(=O)OCC1OC(n2cc(C#N)c3c(Cl)nc(Cl)nc32)C(OC(C)=O)C1OC(C)=O` (centres undefined) returned a melting point of 70 to 75 °C.
Consider `CCCCCCCCCCCCCc1c[nH]c(C(=O)OC)c1`, for which the melting point is 80 to 82 °C.
Turning to `CSc1ccc(/C=C2/C(C)=C(CCCN(O)C(N)=O)c3cc(F)ccc32)cc1`, the melting point was 145 to 147 °C.
Molecule `CCOC(=O)COc1cc(C2C(C(=O)OC)=C(C)NC(C)=C2C(=O)OC)ccc1OC` gave a melting point of 170 °C.
The molecule `Cc1ccc(NC(=O)OC(C)(C)C)c(C)c1` had a melting point of 90 to 91 °C.
`CCCSc1ccccc1S(N)(=O)=O` yielded a melting point of 58 to 64 °C.
The figure for `O=[N+]([O-])c1ccc(Oc2ccc(C3(c4ccc(Oc5ccc([N+](=O)[O-])cc5)cc4)CCC(c4ccccc4)CC3)cc2)cc1` is 216 to 218 °C; for `Cc1ccc2nc(-c3ccccc3F)cc(OCc3ccccc3)c2c1` it is 91.5 to 92.8 °C; for `CN(C)C=Nc1c(Cl)cc(N=Cc2cccc(F)c2)cc1Cl` it is 95 to 96 °C.
Under `CN(C(=O)c1ccc2nonc2c1)C1CCOC(=O)C1` (centres undefined) stands 169 to 171 °C; under `COc1ccc(-n2cc(C(=O)O)cn2)cc1`, 235 to 237 °C; under `OC1(c2ccc(-c3ccccc3)nc2)CN2CCC1CC2` (centres undefined), 214 °C.
Consider `CCOCC1CN2CCC1CC2` (centres undefined), for which the melting point is 73 to 77 °C.
The molecule `COc1ccc(COCC(O)CO)cc1` (centres undefined) came in with a melting point of 51 to 53 °C.
Under `CP(=O)(O)C(CCc1ccccc1)NC(=O)C(F)(F)F` (centres undefined) stands 138 to 145 °C; under `CCOCc1nc2c(N)nc3cc(OCCCN4CCCC4=O)ccc3c2n1CCCCNS(C)(=O)=O`, 157 °C; under `CCN(CC)C(=O)n1c(C(=O)C(C)(C)c2ccc(Cl)cc2)cc2cc(OC)ccc21`, 172 to 175 °C.
In turn, `Cc1cc2c(N3CCC(CCO)CC3)ccc(C#N)c2o1` gave a melting point of 106 to 107 °C.
The figure for `c1csc(-c2nc(COc3ccc(CCCCn4ccnc4)cc3)cs2)c1` is 108 to 109 °C; for `CSc1nn2c(N3CCN(C)CC3)cc(C)nc2c1S(=O)(=O)c1cccnc1` it is 188 to 189 °C.
In the case of `CCOc1cc2ncc(C#N)c(Nc3ccc4c(c3)CCC4)c2cc1OCC`, the melting point is 85 to 88 °C.
On to `C/C(=N\O)[C@H]1CC[C@H]2[C@@H]3CCC4=CC(=O)CC[C@]4(C)[C@H]3CC[C@]12C`, for which the melting point fell in the range of 220 to 221 °C.
Turning to `CCn1c(=O)c2c(nc(C=Cc3ccc(C(=O)O)cc3OC)n2C)n(CC)c1=O`, the melting point is over 280 °C.
In the case of `Cc1ccc2c(c1)c1cc(C(=O)N3CCOCC3)sc1n2C`, the melting point fell in the range of 158 to 160 °C.
`CS(=O)(=O)Nc1cccc(Nc2nc(NCc3ccccc3O)c3nc[nH]c3n2)c1` gave a melting point of 168 to 171 °C.
For `Cc1cccc(OCC(F)(F)F)c1NC(=O)CCl`, the melting point fell in the range of 128 to 129 °C.
As for `O=C1C2CC(c3ccc([N+](=O)[O-])cc3)(C2)C(=O)N1CC1CCCCC1`, the melting point lay in the range of 191 to 194 °C.
The molecule `N#Cc1c(F)c(F)c(O)c(F)c1F` gave a melting point of 128 to 129 °C.
Under `Cc1c(NC(=O)c2c(C(=O)N3CCC3)cnn2C)ccn2nc(-c3ccccc3)nc12` stands 243 to 245 °C; under `CS(=O)(=O)Nc1ccc(N)cc1CC1CCCCC1`, 160 to 162 °C; under `CCN1C(=O)C(C)(C)C(=O)N(C)c2cc(CN(CCn3ccc4oc(C)cc4c3=O)Cc3nc4ccccc4n3C)ccc21`, 127 to 133 °C.
`Cc1ccc(-c2cc(CNC(CO)CO)c(=O)n(CC(C)C)n2)cc1` showed a melting point of 134 to 135 °C.
`COC(=O)C(C)(C)Cc1c(SC(C)(C)C)c2cc(O)ccc2n1Cc1ccc(Cl)cc1`: the melting point fell in the range of 170 to 171 °C.
